Counter-ions that a name gives are not always drawn. Like-named read-outs stand apart in the source and are kept apart here.
What was measured:
MV4-11 cells = assay: Cellular proliferation assay (MTS), MV4-11; type: cell-based; conditions: Homo sapiens; MV4-11 cells, 72 hour incubation, MTS; read-out: Cellular Assay MV-proliferation IC50
Excerpt: Cellular Proliferation Assay
Cancer cell viability and proliferation can be evaluated using a tetrazolium salt reduction cell-based assay. In viable cells, this colorimetric assay can measure mitochondrial reduction of a tetrazolium component (MTS) into an […] formazan product.
This cell line was used to determine the ability of the compounds provided herein to inhibit Flt3 in intact cells. The RS4-11 cell line, which expresses the wild-type (WT) receptor, is also used as a control to verify the test compound's ability to inhibit the FLT3 receptor containing the ITD mutation.
MV4-11 cells were plated at 10,000 cells per well in DMEM medium with 0.5% serum. RS4-11 cells were plated at 20,000 cells per well in RPMI with 0.5% serum. […] An aliquot from each well of the compound plate was transferred to the plated cells and then incubated @ 37° C. in 5% CO2 (for 3 days for the MV4-11 cells, 2 days for the RS4-11 cells).
MTS tetrazolium compound (Owen's reagent) was thawed in a H2O bath. 20 μl of MTS tetrazolium was added to each well of optical plate and the cells were incubated @ 37° C. in 5% CO2 for 2 hours.

FLT3 = molecular target: T1, FLT3 (Homo sapiens, UniProt P36888); assay: Binding constant (Kd) measurement, phage-displayed kinase competition binding assay, FLT3
T1 construct: made in house
T1 sequence (P36888 27-993): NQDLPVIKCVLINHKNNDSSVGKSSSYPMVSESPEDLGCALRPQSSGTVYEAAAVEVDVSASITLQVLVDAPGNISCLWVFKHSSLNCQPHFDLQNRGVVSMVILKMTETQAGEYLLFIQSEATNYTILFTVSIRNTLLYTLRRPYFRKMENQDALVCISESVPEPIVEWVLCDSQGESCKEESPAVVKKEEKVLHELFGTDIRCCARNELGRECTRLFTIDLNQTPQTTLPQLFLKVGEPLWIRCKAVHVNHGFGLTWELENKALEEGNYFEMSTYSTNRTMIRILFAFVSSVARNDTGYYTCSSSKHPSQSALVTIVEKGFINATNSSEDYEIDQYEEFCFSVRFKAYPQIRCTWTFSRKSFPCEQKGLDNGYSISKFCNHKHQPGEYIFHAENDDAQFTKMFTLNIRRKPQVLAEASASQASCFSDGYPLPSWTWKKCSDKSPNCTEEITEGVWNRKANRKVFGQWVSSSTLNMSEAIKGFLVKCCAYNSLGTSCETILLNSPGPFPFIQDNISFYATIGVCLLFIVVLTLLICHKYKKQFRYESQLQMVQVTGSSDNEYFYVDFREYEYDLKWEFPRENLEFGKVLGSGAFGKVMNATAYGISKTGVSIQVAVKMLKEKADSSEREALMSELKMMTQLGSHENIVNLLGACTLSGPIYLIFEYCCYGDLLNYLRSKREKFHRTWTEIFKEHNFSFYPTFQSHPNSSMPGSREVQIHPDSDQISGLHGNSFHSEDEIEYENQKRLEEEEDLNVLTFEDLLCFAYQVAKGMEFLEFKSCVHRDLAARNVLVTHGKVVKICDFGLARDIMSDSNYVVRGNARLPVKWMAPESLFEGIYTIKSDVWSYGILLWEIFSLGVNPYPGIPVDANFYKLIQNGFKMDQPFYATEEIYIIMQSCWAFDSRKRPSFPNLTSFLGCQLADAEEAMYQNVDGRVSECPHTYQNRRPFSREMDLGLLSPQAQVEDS
Protocol: (§1) Binding Constant (Kd) Measurements for Small-Molecule-Kinase Interactions
(§2) By testing across a large class of protein kinases, specificity of the kinase inhibitors provided herein is also determined. The components of the assays include various human kinases expressed as fusions to T7 bacteriophage particles and immobilized ligands that bind to the ATP site of the kinases. […] If the test compound binds the kinase, it competes with the immobilized ligand and prevents binding to the solid support. […] The results are read out by quantitating the amount of fusion protein bound to the solid support, which is accomplished by either traditional phage plaque assays or by quantitative PCR (qPCR) using the phage genome as a template.

KIT = molecular target: T2, KIT (Homo sapiens, UniProt P10721); assay: Binding constant (Kd) measurement, phage-displayed kinase competition binding assay, KIT
T2 construct: made in house
Protocol: as §1, §2

CSF1R = molecular target: T3, CSF1R (Homo sapiens, UniProt P07333); assay: Binding constant (Kd) measurement, phage-displayed kinase competition binding assay, CSF1R
T3 construct: made in house
Protocol: as §1, §2

[1] = read-out: Binding Assay FLT3 Kd

T2 sequence (P10721 26-976): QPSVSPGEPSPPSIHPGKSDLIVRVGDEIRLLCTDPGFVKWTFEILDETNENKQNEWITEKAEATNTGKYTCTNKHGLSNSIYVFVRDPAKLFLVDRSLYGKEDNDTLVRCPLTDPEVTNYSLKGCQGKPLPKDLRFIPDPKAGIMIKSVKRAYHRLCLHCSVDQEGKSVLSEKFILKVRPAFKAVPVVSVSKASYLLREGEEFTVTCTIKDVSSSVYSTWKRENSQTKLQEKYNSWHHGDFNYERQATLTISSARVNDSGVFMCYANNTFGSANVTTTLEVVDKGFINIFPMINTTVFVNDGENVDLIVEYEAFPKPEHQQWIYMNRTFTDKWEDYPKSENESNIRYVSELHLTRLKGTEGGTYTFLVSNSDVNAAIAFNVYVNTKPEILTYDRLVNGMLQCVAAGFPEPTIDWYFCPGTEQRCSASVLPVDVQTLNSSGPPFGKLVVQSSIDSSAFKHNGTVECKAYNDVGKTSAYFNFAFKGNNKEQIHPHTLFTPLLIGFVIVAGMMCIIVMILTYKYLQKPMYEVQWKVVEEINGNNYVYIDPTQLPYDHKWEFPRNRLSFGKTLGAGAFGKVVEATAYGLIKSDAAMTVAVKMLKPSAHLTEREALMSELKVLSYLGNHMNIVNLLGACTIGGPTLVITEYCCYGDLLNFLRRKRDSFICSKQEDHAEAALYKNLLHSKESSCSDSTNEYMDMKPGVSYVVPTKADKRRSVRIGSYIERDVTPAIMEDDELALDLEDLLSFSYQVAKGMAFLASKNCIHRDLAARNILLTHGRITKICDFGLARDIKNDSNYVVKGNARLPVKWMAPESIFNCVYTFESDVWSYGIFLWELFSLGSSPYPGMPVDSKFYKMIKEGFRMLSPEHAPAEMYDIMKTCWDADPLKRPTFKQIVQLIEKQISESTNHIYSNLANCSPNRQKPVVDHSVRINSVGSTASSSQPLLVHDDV
T3 sequence (P07333 20-972): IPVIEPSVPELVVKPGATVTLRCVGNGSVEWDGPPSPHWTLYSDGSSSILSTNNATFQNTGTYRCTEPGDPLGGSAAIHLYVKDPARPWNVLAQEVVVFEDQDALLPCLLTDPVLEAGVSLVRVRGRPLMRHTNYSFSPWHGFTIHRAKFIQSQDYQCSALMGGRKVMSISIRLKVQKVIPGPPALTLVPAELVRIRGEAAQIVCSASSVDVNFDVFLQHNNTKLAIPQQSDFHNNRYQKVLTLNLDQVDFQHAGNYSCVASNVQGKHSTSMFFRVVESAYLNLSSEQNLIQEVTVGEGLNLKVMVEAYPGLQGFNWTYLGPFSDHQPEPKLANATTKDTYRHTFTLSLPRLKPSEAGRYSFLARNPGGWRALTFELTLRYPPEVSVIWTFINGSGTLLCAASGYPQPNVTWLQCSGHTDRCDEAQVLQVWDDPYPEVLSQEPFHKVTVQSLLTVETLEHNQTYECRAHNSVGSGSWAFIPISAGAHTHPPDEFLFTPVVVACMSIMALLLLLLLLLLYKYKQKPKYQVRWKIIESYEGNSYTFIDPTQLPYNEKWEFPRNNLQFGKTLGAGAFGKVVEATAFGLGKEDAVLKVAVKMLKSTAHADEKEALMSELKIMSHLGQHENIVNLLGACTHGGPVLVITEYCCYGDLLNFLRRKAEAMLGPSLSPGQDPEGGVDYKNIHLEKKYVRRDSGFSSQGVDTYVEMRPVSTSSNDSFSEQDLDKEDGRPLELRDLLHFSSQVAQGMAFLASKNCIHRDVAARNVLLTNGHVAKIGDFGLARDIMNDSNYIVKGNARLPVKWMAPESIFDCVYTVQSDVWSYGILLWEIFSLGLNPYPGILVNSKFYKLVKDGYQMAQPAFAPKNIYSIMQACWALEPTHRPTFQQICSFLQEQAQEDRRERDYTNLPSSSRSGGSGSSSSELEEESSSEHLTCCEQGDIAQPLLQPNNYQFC

With `CC(C)[C@@H](N)C(=O)Oc1ccc2c(c1)sc1nc(-c3ccc(NC(=O)Nc4cc(C(C)(C)C)on4)cc3)cn12` [Compound B5, (2R)-2-amino-3-methyl-butyric acid 2-{4-[3-(5-tert-butyl-isoxazol-3-yl)-ureido]-phenyl}-benzo[d]imidazo[2,1-b]thiazol-7-yl ester] the IC50 (MV4-11 cells) was < 10 nM, the Kd (FLT3) was < 10 nM and the Kd (KIT) was 10 to 100 nM. It also gave a Kd (CSF1R) of 10 to 100 nM.
With `CC(C)(C)c1cc(NC(=O)Nc2ccc(-c3cn4c(n3)sc3cc(OCCCN5CCOCC5)ccc34)cc2)no1` [Compound B7, 1-(5-tert-butyl-isoxazol-3-yl)-3-{4-[7-(3-morpholin-4-yl-propoxy)-benzo[d]imidazo[2,1-b]thiazol-2-yl]-phenyl}-urea hydrochloride] the IC50 (MV4-11 cells) was < 10 nM, the Kd (FLT3; [1]) was < 10 nM and the Kd (KIT) was 10 to 100 nM. For the same molecule, the Kd (CSF1R) was 10 to 100 nM.
In the case of `CC(C)(C)c1cc(NC(=O)Nc2ccc(-c3cn4c(n3)sc3cc(OCCCN5CCSCC5)ccc34)cc2)no1` [Compound B8, 1-(5-tert-Butyl-isoxazol-3-yl)-3-{4-[7-(3-thiomorpholin-4-yl-propoxy)-benzo[d]imidazo[2,1-b]thiazol-2-yl]-phenyl}-urea], the IC50 (MV4-11 cells) is reported as 10 to 100 nM, the Kd (FLT3) is reported as < 10 nM and the Kd (KIT) is reported as 10 to 100 nM. For the same molecule, the Kd (CSF1R) was 10 to 100 nM.
`CC(C)(C)c1cc(NC(=O)Nc2ccc(-c3cn4c(n3)sc3cc(OCCCN5CCN(S(C)(=O)=O)CC5)ccc34)cc2)no1` [Compound B10, 1-(5-tert-butyl-isoxazol-3-yl)-3-(4-{7-[3-(4-methanesulfonyl-piperazin-1-yl)-propoxy]-benzo[d]imidazo[2,1-b]thiazol-2-yl}-phenyl)-urea] was tested, and the IC50 (MV4-11 cells) was < 10 nM, the Kd (FLT3; [1]) was < 10 nM and the Kd (KIT) was 10 to 100 nM. The Kd (CSF1R) was 10 to 100 nM.
With `CC(C)(C)c1cc(NC(=O)Nc2ccc(-c3cn4c(n3)sc3cccc(OCCN5CCOCC5)c34)cc2)no1` [Compound B11, N-(5-tert-butyl-isoxazol-3-yl)-N′-{4-[5-(2-morpholin-4-yl-ethoxy)imidazo[2,1-b][1,3]benzothiazol-2-yl]phenyl}urea hydrochloride] the IC50 (MV4-11 cells) was < 10 nM, the Kd (FLT3; [1]) was < 10 nM and the Kd (KIT) was 10 to 100 nM. It also gave a Kd (CSF1R) of 100 to 1000 nM.
With `CC(C)(C)c1cc(NC(=O)Nc2ccc(-c3cn4c(n3)sc3ccc(OCCN5CCOCC5)cc34)cc2)no1` [Compound B12, N-(5-tert-butyl-isoxazol-3-yl)-N′-{4-[6-(2-morpholin-4-yl-ethoxy)imidazo[2,1-b][1,3]benzothiazol-2-yl]phenyl}urea hydrochloride] the IC50 (MV4-11 cells) was < 10 nM, the Kd (FLT3; [1]) was < 10 nM and the Kd (KIT) was 10 to 100 nM. The Kd (CSF1R) was 100 to 1000 nM.
For `CC(C)(C)c1cc(NC(=O)Nc2cccc(-c3cn4c(n3)sc3cc(OCCN5CCOCC5)ccc34)c2)no1` [Compound B13, N-(5-tert-butyl-isoxazol-3-yl)-N′-{3-[7-(2-morpholin-4-yl-ethoxy)imidazo[2,1-b][1,3]benzothiazol-2-yl]phenyl}urea], the IC50 (MV4-11 cells) was > 100 nM, the Kd (FLT3; [1]) was 100 to 1000 nM and the Kd (KIT) was > 1000 nM. The Kd (CSF1R) was > 1000 nM.
With `CCOC(=O)c1ccc2c(c1)sc1nc(-c3cccc(NC(=O)Nc4cc(C(C)(C)C)on4)c3)cn12` [Compound B14, 2-{3-[3-(5-tert-Butyl-isoxazol-3-yl)-ureido]-phenyl}-imidazo[2,1-b][1,3]benzothiazole-7-carboxylic acid ethyl ester] the IC50 (MV4-11 cells) was > 100 nM, the Kd (FLT3; [1]) was > 1000 nM and the Kd (KIT) was > 1000 nM. For the same molecule, the Kd (CSF1R) was > 1000 nM.
For `CCOC(=O)CCc1ccc2c(c1)sc1nc(-c3ccc(NC(=O)Nc4cc(C(C)(C)C)on4)cc3)cn12` [Compound C3, Ethyl 3-{2-[4-({[(5-tert-Butylisoxazol-3-yl)amino]carbonyl}amino)phenyl]imidazo[2,1-b][1,3]benzothiazol-7-yl}propanoate], the IC50 (MV4-11 cells) was < 10 nM, the Kd (FLT3) was < 10 nM and the Kd (KIT) was 10 to 100 nM. The Kd (CSF1R) was > 1000 nM.
For `CC(C)(C)c1cc(NC(=O)Nc2ccc(-c3cn4c(n3)sc3cc(CCC(=O)O)ccc34)cc2)no1` [Compound C4, 3-{2-[4-({[(5-tert-butylisoxazol-3-yl)amino]carbonyl}amino)phenyl]imidazo[2,1-b][1,3]benzothiazol-7-yl}propanoic acid], the IC50 (MV4-11 cells) was < 10 nM, the Kd (FLT3; [1]) was < 10 nM and the Kd (KIT) was < 10 nM. For the same molecule, the Kd (CSF1R) was 10 to 100 nM.
In the case of `CCN1CCN(C(=O)CCc2ccc3c(c2)sc2nc(-c4ccc(NC(=O)Nc5cc(C(C)(C)C)on5)cc4)cn23)CC1` [Compound C5, N-(5-tert-Butyl-isoxazol-3-yl)-N′-(4-{7-[3-(4-ethyl-piperazin-1-yl)-3-oxo-propyl]imidazo[2,1-b][1,3]benzothiazol-2-yl}phenyl)urea], the IC50 (MV4-11 cells) is reported as < 10 nM, the Kd (FLT3; [1]) is reported as < 10 nM and the Kd (KIT) is reported as < 10 nM. The Kd (CSF1R) was 10 to 100 nM.
In the case of `CC(C)(C)c1cc(NC(=O)Nc2ccc(-c3cn4c(n3)sc3cc(CCC(=O)N5CCOCC5)ccc34)cc2)no1` [Compound C7, N-(5-tert-butyl-isoxazol-3-yl)-N′-{4-[7-(3-morpholino-4-yl-3-oxo-propyl)imidazo[2,1-b][1,3]benzothiazol-2-yl]phenyl}urea], the IC50 (MV4-11 cells) is reported as < 10 nM, the Kd (FLT3; [1]) is reported as < 10 nM and the Kd (KIT) is reported as < 10 nM. For the same molecule, the Kd (CSF1R) was 10 to 100 nM.
`CCN(CC)C(=O)CCc1ccc2c(c1)sc1nc(-c3ccc(NC(=O)Nc4cc(C(C)(C)C)on4)cc3)cn12` [Compound C8, 3-(2-{4-[3-(5-tert-butyl-isoxazol-3-yl)-ureido]-phenyl}-benzo[d]imidazo[2,1-b]thiazol-7-yl)-N,N-diethyl-propionamide] was tested, and the IC50 (MV4-11 cells) was < 10 nM, the Kd (FLT3) was < 10 nM and the Kd (KIT) was < 10 nM. For the same molecule, the Kd (CSF1R) was 10 to 100 nM.
`CC(C)(C)c1cc(NC(=O)Nc2ccc(-c3cn4c(n3)sc3cc(CCC(=O)NCCN5CCOCC5)ccc34)cc2)no1` [Compound C9, 3-(2-{4-[3-(5-tert-butyl-isoxazol-3-yl)-ureido]-phenyl}-benzo[d]imidazo[2,1-b]thiazol-7-yl)-N-(2-morpholin-4-yl-ethyl)-propionamide hydrochloride] was tested, and the IC50 (MV4-11 cells) was < 10 nM, the Kd (FLT3; [1]) was < 10 nM and the Kd (KIT) was < 10 nM. For the same molecule, the Kd (CSF1R) was < 10 nM.
In the case of `CC(C)(C)c1cc(NC(=O)Nc2ccc(-c3cn4c(n3)sc3cc(CCC(=O)NCCN5CCCCC5)ccc34)cc2)no1` [Compound C10, 3-(2-{4-[3-(5-tert-butyl-isoxazol-3-yl)-ureido]-phenyl}-benzo[d]imidazo[2,1-b]thiazol-7-yl)-N-(2-piperidin-1-yl-ethyl)-propionamide hydrochloride], the IC50 (MV4-11 cells) is reported as < 10 nM, the Kd (FLT3; [1]) is reported as < 10 nM and the Kd (KIT) is reported as < 10 nM. For the same molecule, the Kd (CSF1R) was 10 to 100 nM.
`CC(C)(C)c1cc(NC(=O)Nc2ccc(-c3cn4c(n3)sc3cc(CCC(=O)NCCN5CCCC5)ccc34)cc2)no1` [Compound C11, 3-(2-{4-[3-(5-tert-butyl-isoxazol-3-yl)-ureido]-phenyl}-benzo[d]imidazo[2,1-b]thiazol-7-yl)-N-(2-pyrrolidin-1-yl-ethyl)-propionamide hydrochloride] was tested, and the IC50 (MV4-11 cells) was < 10 nM, the Kd (FLT3) was < 10 nM and the Kd (KIT) was < 10 nM. For the same molecule, the Kd (CSF1R) was < 10 nM.
In the case of `CC(C)(C)c1cc(NC(=O)Nc2ccc(-c3cn4c(n3)sc3cc(C(=O)NCCN5CCCCC5)ccc34)cc2)no1` [Compound C20, 2-{4-[3-(5-tert-butyl-isoxazol-3-yl)-ureido]-phenyl}-imidazo[2,1-b][1,3]benzothiazole-7-carboxylic Acid (2-Piperidin-1-yl-ethyl)-amide hydrochloride], the IC50 (MV4-11 cells) is reported as < 10 nM, the Kd (KIT) is reported as < 10 nM and the Kd (CSF1R) is reported as 10 to 100 nM.
`O=C(Nc1ccc(-c2cn3c(n2)sc2cc(OCCN4CCOCC4)ccc23)cc1)Nc1ccc2c(c1)OCO2` [Compound F3] was tested, and the Kd (FLT3; [1]) was < 10 nM, the Kd (KIT) was < 10 nM and the Kd (CSF1R) was > 1000 nM.
